Active and inactive are the calls of the source. The rule behind the calls is not given here.
Experiments:
[1] = target: Muscarinic acetylcholine receptor M3 (Homo sapiens) (UniProt P20309); assay: Inhibition of human Muscarinic acetylcholine receptor M3 expressed in stable Cricetulus griseus CHO cells at 10 uM relative to control; assay type: cell-based
[2] = target: Alpha-2B adrenergic receptor (Homo sapiens) (UniProt P18089); assay: Inhibition of human Alpha-2B adrenergic receptor expressed in HEK293T cells at 10 uM relative to control; assay type: cell-based
[3] = target: Beta-1 adrenergic receptor (Homo sapiens) (UniProt P08588); assay: Inhibition of human Beta-1 adrenoceptor at 10 uM relative to control
Sequence of Beta-1 adrenergic receptor (Homo sapiens) (P08588 whole entry, looked up): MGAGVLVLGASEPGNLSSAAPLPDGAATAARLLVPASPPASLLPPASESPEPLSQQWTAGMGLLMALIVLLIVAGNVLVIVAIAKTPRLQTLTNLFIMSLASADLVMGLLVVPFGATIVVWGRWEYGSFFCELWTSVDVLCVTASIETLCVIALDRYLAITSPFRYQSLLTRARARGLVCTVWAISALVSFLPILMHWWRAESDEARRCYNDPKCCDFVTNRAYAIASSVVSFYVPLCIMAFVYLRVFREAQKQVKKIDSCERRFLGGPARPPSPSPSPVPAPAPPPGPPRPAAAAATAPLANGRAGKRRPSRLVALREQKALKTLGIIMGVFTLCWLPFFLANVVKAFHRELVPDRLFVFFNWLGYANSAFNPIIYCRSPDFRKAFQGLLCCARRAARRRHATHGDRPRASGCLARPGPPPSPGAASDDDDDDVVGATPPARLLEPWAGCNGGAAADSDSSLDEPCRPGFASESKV

[4] = target: Alpha-2A adrenergic receptor (Homo sapiens) (UniProt P08913); assay: Inhibition of human Alpha-2A adrenergic receptor in stable Canis lupus familiaris MDCK cells at 10 uM relative to control; assay type: cell-based
Sequence of Alpha-2A adrenergic receptor (Homo sapiens) (P08913 whole entry): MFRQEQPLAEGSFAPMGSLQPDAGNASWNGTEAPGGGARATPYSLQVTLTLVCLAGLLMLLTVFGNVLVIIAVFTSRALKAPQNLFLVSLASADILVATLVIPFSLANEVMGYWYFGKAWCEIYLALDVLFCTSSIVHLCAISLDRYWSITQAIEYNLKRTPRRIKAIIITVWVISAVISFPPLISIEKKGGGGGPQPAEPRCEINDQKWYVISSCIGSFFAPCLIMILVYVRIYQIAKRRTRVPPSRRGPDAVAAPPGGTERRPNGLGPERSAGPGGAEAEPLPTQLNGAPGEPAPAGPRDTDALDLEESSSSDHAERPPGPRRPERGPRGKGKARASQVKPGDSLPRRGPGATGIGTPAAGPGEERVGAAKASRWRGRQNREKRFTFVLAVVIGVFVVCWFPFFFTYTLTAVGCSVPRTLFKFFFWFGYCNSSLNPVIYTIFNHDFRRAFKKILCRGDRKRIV

[5] = target: D(1A) dopamine receptor (Homo sapiens) (UniProt P21728); assay: Inhibition of human D(1A) dopamine receptor expressed in HEK293T cells at 10 uM relative to control; assay type: cell-based
Sequence of D(1A) dopamine receptor (Homo sapiens) (P21728 whole entry): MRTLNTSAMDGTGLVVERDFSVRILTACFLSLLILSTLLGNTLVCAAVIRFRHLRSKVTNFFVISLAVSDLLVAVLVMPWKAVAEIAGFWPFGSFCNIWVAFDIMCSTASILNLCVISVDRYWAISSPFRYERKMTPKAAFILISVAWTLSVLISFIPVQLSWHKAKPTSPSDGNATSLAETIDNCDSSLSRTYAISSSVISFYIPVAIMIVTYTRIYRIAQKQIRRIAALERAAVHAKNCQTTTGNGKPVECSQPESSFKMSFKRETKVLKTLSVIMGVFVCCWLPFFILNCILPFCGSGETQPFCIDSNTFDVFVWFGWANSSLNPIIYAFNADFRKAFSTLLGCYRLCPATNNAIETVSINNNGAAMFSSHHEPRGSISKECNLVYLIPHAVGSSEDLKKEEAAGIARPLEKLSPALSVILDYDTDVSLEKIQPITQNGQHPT

B-cell [6] = assay: Induction of DNA repair in mouse B cells assessed as inhibition in H4K20me3 level at 1 to 10 uM incubated for 96 hrs by western blot analysis; assay type: functional, cell-based; details: dose 1-10 µM
Rattus norvegicus [7] = species: Rattus norvegicus; assay: Inhibition of Rat GABAA at 10 uM in the presence of 3H and BZP relative to control
[8] = target: T1, Muscarinic acetylcholine receptor M2 (Homo sapiens) (UniProt P08172); assay: Inhibition of human Muscarinic acetylcholine receptor M2 at 10 uM relative to control
T1 sequence (whole entry): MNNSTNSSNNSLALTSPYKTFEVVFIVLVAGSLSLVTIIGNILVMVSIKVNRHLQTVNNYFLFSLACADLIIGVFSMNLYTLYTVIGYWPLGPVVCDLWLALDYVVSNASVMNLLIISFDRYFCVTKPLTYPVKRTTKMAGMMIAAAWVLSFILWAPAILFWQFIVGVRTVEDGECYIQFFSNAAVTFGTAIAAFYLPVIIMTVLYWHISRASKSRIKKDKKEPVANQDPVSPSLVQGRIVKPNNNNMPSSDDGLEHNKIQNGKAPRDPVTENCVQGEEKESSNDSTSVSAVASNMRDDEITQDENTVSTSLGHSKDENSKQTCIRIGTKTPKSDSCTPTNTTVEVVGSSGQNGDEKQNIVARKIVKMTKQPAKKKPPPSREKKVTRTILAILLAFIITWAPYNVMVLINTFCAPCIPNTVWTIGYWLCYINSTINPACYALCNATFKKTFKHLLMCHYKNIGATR

[9] = target: Muscarinic acetylcholine receptor M3 (Homo sapiens) (UniProt P20309); assay: Inhibition of human Muscarinic 3 at 10 uM relative to control
[10] = target: T1, Muscarinic acetylcholine receptor M2 (Homo sapiens); assay: Inhibition of human Muscarinic acetylcholine receptor M2 expressed in stable Cricetulus griseus CHO cells at 10 uM relative to control; assay type: cell-based
[11] = target: 5-hydroxytryptamine receptor 2B (Homo sapiens) (UniProt P41595); assay: Inhibition of human 5-hydroxytryptamine receptor 2B at 10 uM relative to control
[12] = target: Alpha-1B adrenergic receptor (Homo sapiens) (UniProt P35368); assay: Inhibition of human Alpha-1B adrenergic receptor expressed in HEK293T cells at 10 uM relative to control; assay type: cell-based
Sequence of Alpha-1B adrenergic receptor (Homo sapiens) (P35368 whole entry): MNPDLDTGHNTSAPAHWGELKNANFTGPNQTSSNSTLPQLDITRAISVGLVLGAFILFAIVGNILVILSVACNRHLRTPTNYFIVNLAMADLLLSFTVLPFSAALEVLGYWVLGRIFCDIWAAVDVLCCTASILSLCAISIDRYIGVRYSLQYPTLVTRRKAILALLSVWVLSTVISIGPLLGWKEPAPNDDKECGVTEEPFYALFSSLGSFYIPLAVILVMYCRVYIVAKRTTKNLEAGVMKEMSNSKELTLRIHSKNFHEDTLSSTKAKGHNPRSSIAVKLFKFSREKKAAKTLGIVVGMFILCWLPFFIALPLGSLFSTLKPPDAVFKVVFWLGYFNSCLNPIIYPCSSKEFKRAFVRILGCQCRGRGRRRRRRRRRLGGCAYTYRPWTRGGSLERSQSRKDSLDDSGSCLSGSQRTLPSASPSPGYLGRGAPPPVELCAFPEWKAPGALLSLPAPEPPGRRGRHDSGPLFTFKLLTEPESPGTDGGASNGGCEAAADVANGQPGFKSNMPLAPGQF

[13] = target: Melatonin receptor type 1A (Homo sapiens) (UniProt P48039); assay: Inhibition of human Melatonin receptor type 1A at 10 uM relative to control
Sequence of Melatonin receptor type 1A (Homo sapiens) (P48039 whole entry): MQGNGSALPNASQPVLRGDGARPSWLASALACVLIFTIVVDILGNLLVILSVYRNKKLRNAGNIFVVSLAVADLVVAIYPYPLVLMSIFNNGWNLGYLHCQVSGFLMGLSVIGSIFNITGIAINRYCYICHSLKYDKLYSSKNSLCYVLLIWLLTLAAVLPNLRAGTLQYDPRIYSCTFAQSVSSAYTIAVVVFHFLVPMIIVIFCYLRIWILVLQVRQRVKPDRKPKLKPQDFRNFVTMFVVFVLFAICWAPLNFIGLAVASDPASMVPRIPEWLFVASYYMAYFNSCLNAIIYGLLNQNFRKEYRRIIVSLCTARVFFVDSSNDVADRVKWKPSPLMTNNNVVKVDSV

[14] = target: Kappa-type opioid receptor (Homo sapiens) (UniProt P41145); assay: Inhibition of human kappa opioid receptor expressed in stable HEK cells at 10 uM relative to control; assay type: cell-based
B-cell [15] = assay: Induction of DNA repair in mouse B cells assessed as inhibition in H4K20me2 level at 1 to 10 uM incubated for 96 hrs by western blot analysis; assay type: functional, cell-based; details: dose 1-10 µM
Homo sapiens = species: Homo sapiens; assay: Inhibition of human GABA-gated Cl- channel at 10 uM relative to control
[16] = target: Beta-2 adrenergic receptor (Homo sapiens) (UniProt P07550); assay: Inhibition of human Beta-2 adrenergic receptor at 10 uM relative to control
Sequence of Beta-2 adrenergic receptor (Homo sapiens) (P07550 whole entry, looked up): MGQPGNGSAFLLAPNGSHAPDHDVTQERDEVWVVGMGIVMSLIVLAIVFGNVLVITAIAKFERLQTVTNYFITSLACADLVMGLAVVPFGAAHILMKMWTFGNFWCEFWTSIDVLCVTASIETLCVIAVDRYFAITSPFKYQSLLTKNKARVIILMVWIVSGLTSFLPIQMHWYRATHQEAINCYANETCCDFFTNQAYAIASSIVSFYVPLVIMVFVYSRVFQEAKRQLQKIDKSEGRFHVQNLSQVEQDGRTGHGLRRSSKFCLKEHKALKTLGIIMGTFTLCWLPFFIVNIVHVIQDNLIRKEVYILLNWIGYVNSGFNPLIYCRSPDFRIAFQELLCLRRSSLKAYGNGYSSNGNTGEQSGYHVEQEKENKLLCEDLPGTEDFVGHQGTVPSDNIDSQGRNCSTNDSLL

[17] = target: C-X-C chemokine receptor type 2 (Homo sapiens) (UniProt P25025); assay: Inhibition of human CXCR2 at 10 uM relative to control
[18] = target: 5-hydroxytryptamine receptor 1D (Homo sapiens) (UniProt P28221); assay: Inhibition of human 5-HT1D expressed in HEK293T cells at 10 uM relative to control; assay type: cell-based
Sequence of 5-hydroxytryptamine receptor 1D (Homo sapiens) (P28221 whole entry): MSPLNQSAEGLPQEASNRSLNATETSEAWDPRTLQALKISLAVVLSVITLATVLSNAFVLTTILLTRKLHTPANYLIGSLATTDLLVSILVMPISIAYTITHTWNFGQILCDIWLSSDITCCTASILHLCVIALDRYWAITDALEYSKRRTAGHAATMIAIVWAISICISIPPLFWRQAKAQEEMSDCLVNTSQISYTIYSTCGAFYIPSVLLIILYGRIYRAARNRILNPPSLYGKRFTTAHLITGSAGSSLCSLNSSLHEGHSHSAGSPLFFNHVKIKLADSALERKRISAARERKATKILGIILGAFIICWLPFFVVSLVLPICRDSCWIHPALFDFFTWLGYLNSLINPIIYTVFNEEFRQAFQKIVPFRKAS

[19] = target: Nociceptin receptor (Homo sapiens) (UniProt P41146); assay: Inhibition of human Nociceptin receptor at 10 uM relative to control
[20] = target: Alpha-2C adrenergic receptor (Homo sapiens) (UniProt P18825); assay: Inhibition of human Alpha-2C adrenergic receptor in stable Canis lupus familiaris MDCK cells at 10 uM relative to control; assay type: cell-based
[21] = target: T2, 5-hydroxytryptamine receptor 1A (Homo sapiens) (UniProt P08908); assay: Inhibition of human 5-HT1A receptor expressed in stable […] cells at 10 uM relative to control; assay type: cell-based; details: HEK293T
T2 sequence (whole entry): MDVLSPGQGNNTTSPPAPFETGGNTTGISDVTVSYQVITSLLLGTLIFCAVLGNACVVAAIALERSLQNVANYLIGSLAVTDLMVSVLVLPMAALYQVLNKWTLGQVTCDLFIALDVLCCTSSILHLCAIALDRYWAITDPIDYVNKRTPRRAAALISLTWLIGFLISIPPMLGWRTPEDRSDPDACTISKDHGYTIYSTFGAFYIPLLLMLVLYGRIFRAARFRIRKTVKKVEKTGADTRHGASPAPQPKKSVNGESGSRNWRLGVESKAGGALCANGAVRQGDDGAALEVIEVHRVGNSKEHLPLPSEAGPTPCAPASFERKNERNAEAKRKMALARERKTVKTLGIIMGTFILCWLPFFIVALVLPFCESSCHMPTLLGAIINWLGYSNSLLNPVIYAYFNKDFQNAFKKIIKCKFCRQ

[22] = target: D(2) dopamine receptor (Homo sapiens) (UniProt P14416); assay: Inhibition of human D(2) dopamine receptor expressed in stable human fibroblast cells at 10 uM relative to control; assay type: cell-based
Sequence of D(2) dopamine receptor (Homo sapiens) (P14416 whole entry): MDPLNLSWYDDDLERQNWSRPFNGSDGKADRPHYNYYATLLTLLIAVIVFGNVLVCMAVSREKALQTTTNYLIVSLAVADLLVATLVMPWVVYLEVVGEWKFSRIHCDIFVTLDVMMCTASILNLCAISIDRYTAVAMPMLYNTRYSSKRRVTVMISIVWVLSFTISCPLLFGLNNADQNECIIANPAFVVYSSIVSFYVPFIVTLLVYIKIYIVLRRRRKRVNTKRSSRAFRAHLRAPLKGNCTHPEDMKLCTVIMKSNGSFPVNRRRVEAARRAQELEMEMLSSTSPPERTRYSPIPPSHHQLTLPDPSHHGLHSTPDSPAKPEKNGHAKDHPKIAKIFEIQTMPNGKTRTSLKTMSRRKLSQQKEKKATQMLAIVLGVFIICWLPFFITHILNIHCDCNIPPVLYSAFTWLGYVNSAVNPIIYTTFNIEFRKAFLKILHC

[23] = target: Histamine H4 receptor (Homo sapiens) (UniProt Q9H3N8); assay: Inhibition of human Histamine H4 receptor expressed in HEK293T cells at 10 uM relative to control; assay type: cell-based
Sequence of Histamine H4 receptor (Homo sapiens) (Q9H3N8 whole entry): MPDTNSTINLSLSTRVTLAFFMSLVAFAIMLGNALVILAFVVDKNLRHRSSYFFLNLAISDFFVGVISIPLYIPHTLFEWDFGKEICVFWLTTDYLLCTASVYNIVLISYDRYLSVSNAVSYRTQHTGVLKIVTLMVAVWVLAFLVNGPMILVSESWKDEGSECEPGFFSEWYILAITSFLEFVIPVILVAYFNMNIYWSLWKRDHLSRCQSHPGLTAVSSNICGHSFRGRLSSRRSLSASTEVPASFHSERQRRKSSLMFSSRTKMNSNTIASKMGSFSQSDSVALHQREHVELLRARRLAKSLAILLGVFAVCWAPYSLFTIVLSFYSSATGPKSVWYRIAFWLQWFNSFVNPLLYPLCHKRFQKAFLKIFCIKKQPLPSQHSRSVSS

[24] = target: D(2) dopamine receptor (Homo sapiens) (UniProt P14416); assay: Inhibition of human D(2) dopamine receptor at 10 uM relative to control
Rattus norvegicus [25] = species: Rattus norvegicus; assay: Inhibition of Rat GABAA at 10 uM in the presence of PBR relative to control
[26] = target: Beta-3 adrenergic receptor (Homo sapiens) (UniProt P13945); assay: Inhibition of human Beta-3 adrenergic receptor expressed in human Flp-In-293 cells at 10 uM relative to control; assay type: cell-based
Embryonic stem cell = assay: Antiproliferative activity against mouse Embryonic stem cell assessed as reduction in H4K20me3 at 10 uM incubated for 3 days by immunofluorescence analysis; assay type: functional, cell-based; details: time 3.0 day
[27] = target: D(1A) dopamine receptor (Homo sapiens) (UniProt P21728); assay: Inhibition of human D(1A) dopamine receptor at 10 uM relative to control
[28] = target: Substance-K receptor (Homo sapiens) (UniProt P21452); assay: Inhibition of human Substance-K receptor at 10 uM relative to control
Sequence of Substance-K receptor (Homo sapiens) (P21452 whole entry): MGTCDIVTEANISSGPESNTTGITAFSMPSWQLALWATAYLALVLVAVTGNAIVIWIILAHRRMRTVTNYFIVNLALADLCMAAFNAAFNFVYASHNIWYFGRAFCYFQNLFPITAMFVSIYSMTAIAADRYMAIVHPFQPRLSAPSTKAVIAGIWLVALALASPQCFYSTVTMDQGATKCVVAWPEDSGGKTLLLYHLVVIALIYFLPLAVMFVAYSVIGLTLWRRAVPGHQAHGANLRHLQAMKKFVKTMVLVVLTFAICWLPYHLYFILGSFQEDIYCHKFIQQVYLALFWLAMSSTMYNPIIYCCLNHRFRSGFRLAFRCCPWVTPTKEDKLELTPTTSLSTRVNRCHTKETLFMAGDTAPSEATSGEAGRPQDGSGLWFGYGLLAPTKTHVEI

Sequence of Muscarinic acetylcholine receptor M3 (Homo sapiens) (P20309 whole entry, looked up): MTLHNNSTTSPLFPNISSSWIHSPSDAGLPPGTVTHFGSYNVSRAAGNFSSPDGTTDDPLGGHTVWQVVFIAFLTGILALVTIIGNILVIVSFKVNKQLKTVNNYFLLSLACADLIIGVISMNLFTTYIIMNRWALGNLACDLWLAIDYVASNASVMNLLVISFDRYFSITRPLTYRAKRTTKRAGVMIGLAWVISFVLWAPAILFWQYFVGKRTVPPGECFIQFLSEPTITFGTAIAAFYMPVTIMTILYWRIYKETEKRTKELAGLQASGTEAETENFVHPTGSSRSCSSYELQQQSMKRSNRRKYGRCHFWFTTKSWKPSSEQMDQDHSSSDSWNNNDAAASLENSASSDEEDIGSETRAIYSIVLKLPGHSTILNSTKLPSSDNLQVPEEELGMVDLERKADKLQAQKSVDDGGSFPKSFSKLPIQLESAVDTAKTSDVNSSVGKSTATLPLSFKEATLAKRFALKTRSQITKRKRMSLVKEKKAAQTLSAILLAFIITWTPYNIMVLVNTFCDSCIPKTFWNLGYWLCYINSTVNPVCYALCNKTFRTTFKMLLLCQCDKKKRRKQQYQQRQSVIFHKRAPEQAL

SMILES | inhibition [1] | inhibition [2] | inhibition [3] | inhibition [4] | inhibition [5] | inhibition (B-cell [6]) | inhibition (Rattus norvegicus [7]) | inhibition [8] | inhibition [9] | inhibition [10] | inhibition [11] | inhibition [12] | inhibition [13] | inhibition [14] | inhibition (B-cell [15]) | inhibition (Homo sapiens) | inhibition [16] | inhibition [17] | inhibition [18] | inhibition [19] | further results
Clc1cc2c(NC3CCCC3)nnc(-c3ccncc3)c2cc1Cl | -8% | 14% | 3% | -6% | 2% | Active | 5% | 23% | 11% | -1% | 27% | 1% | 34% | 26% | Active | 90% | 9% | -1% | -8% | 13% | inhibition [20]: 0%; inhibition [21]: 6%; inhibition [22]: -6%; inhibition [23]: -6%; inhibition [24]: 3%; inhibition (Rattus norvegicus [25]): 1%; inhibition [26]: -9%; Activity (Embryonic stem cell): Active; inhibition [27]: 15%; inhibition [28]: 61%
O=C(c1nnc(NC2CCCC2)c2cc(Cl)c(Cl)cc12)N1CCC(O)CC1 | -3% | 7% | 11% | 5% | -1% | inactive | 29% | -2% | 18% | -5% | 8% | -4% | 17% | 54% | inactive | 17% | 10% | 8% | 1% | 0% | inhibition [20]: 4%; inhibition [21]: 12%; inhibition [22]: 39%; inhibition [23]: -3%; inhibition [24]: 13%; inhibition (Rattus norvegicus [25]): 65%; inhibition [26]: -8%; Activity (Embryonic stem cell): inactive; inhibition [27]: -3%; inhibition [28]: 53%

From ChEMBL document CHEMBL5649167, “The SUV4-20 inhibitor A-196 verifies a role for epigenetics in genomic integrity” (Nat Chem Biol, 2017)
